Data taken from patent publication US20230107216A1, “PANTETHEINE DERIVATIVES AND USES THEREOF” (Comet Therapeutics, Inc., priority 2018, published 2023).
Where two headings read alike, the source gives them in different places.

How the values were obtained:
[1] = test system: primary fibroblasts (healthy controls and PA, MMA, BCKDK, PDH, VLCAD, LS, PC, GA, VLCFA, KSS, FXN, HD); assay: Measurement of ROS (H2DCFDA) in primary fibroblasts; assay type: cell-based, human; conditions: procedure Example 812; for inhibition at 10 µM: Homo sapiens
Method in brief: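 Patient and healthy-control primary fibroblasts switched to supplemented DMEM 24 h before assay, then treated with compound (10 μM) plus H2DCFDA (22 μM) for 2 h (PA, MMA lines) or 24 h (other lines). Kinetic fluorescence at 492/527 nm over 60 min; only live cells analysed.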

[2] = test system: HepG2 cells; assay: Mitochondrial membrane potential (MITO-ID MP detection Kit); assay type: cell-based; conditions: Homo sapiens, 168 h, 7 days
Method in brief: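 Cells plated at 160000 cells/mL in DMEM with 10% FBS and 1% Pen-Strep, adhered overnight at 37° C., 5% CO2. Exposure to test compounds (50-10 μM) or 0.2% DMSO for 7 days without media change; membrane potential measured with MITO-ID MP detection kit per manufacturer.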

[3] = test system: HepG2 cells; assay: Glucose uptake (Glucose Uptake-Glo); assay type: cell-based; conditions: Homo sapiens, read-out: % increase in Glucose Uptake
[4] = Fibroblast, VLCAD GM17475, Assay Condition C, read-out: Decreased ROS by at least 30%
[5] = Fibroblast, BCKD GM00612, Assay Condition A, read-out: Decreased ROS by at least 10%
[6] = Fibroblast, VLCFA GM13262, Assay Condition C, read-out: Decreased ROS by at least 30%
[7] = FXN GM04078, Assay Condition C, read-out: Decreased ROS by at least 10%
[8] = FXN GM04078, Assay Condition C, read-out: Decreased ROS by at least 30%
[9] = Fibroblast, NPC1 GM22879, Assay Condition C, read-out: Decreased ROS by at least 30%
[10] = Fibroblast, PDH GM01503, Assay Condition C, read-out: Decreased ROS by at least 10%
[11] = Fibroblast, PDH GM01503, Assay Condition C, read-out: Decreased ROS by at least 30%
[12] = Fibroblast, BCKD GM00649, Assay Condition C, read-out: Decreased ROS by at least 30%

CC[C@@H](O)CC(=O)SCCNC(=O)CCNC(=O)[C@H](O)C(C)(C)CO [Compound 1245, (2R)-2,4-dihydroxy-N-{2-[(2-{[(3R)-3-hydroxypentanoyl]sulfanyl}ethyl)carbamoyl]ethyl}-3,3-dimethylbutanamide]
inhibition at 10 µM ([1]; Fibroblast, VLCAD GM17475, Assay Condition C, read-out: Decreased ROS by at least 10%): ≥ 10%
inhibition at 10 µM [1, 4]: ≥ 30%

C/C=C/C(=O)SCCNC(=O)CCNC(=O)[C@H](O)C(C)(C)COP(=O)(O)O [Compound 82, (R)—S-(2-(3-(2-hydroxy-3,3-dimethyl-4-(phosphonooxy)butanamido)propanamido)ethyl) (E)-but-2-enethioate]
activation at 10 µM ([2]; 10 uM, read-out: % increase in Mitochondrial Membrane Potential): 10%
inhibition at 50 µM ([2]; 50 uM, read-out: % decrease in Mitochondrial Membrane Potential): > 20%

CC(C)C(=O)CC(=O)SCCNC(=O)CCNC(=O)[C@H](O)C(C)(C)CO [Compound 1239, (R)—S-(2-(3-(2,4-dihydroxy-3,3-dimethylbutanamido)propanamido)ethyl) 4-methyl-3-oxopentanethioate]
inhibition at 10 µM [1, 5]: ≥ 10%
inhibition at 10 µM [1, 6]: ≥ 30%
inhibition at 10 µM [1, 7]: ≥ 10%
inhibition at 10 µM [1, 8]: ≥ 30%

C[C@@H](O)CC(=O)CC(=O)SCCNC(=O)CCNC(=O)[C@H](O)C(C)(C)CO [Compound 42, (2R)-2,4-dihydroxy-N-[2-[(2-[[(5R)-5-hydroxy-3-oxohexanoyl]sulfanyl]ethyl)carbamoyl]ethyl]-3,3-dimethylbutanamide]
inhibition at 10 µM [1, 9]: ≥ 30%
inhibition at 10 µM [1, 10]: ≥ 10%

COC(=O)CCC(=O)SCCNC(=O)CCNC(=O)[C@H](OC(=O)CNC(C)=O)C(C)(C)CO [Compound 1298, methyl 4-[(2-[3-[(2R)-2-[(2-acetamidoacetyl)oxy]-4-hydroxy-3,3-dimethylbutanamido]propanamido]ethyl)sulfanyl]-4-oxobutanoate]
activation at 50 µM [3]: ≥ 20%

CC(C)(CO)[C@@H](O)C(=O)NCCC(=O)NCCSC(=O)CCC(=O)O [Compound 1, (R)-4-((2-(3-(2,4-dihydroxy-3,3-dimethylbutanamido)propanamido)ethyl)thio)-4-oxobutanoic acid]
activation at 10 µM [3]: ≥ 30%

CC(C)(CO)[C@@H](O)C(=O)NCCC(=O)NCCSC(=O)CCCN [Compound 370, (2R)—N-[2-([2-[(4-aminobutanoyl)sulfanyl]ethyl]carbamoyl)ethyl]-2,4-dihydroxy-3,3-dimethylbutanamide]
activation at 50 µM [3]: ≥ 30%

CC(C(=O)SCCNC(=O)CCNC(=O)[C@H](O)C(C)(C)CO)[C@@H](C)O (stereo partly drawn) [Compound 1244, (2R)-2,4-dihydroxy-N-{2-[(2-{[(3R)-3-hydroxy-2-methylbutanoyl]sulfanyl}ethyl)carbamoyl]ethyl}-3,3-dimethylbutanamide]
inhibition at 10 µM [1, 5]: ≥ 10%
inhibition at 10 µM [1, 6]: ≥ 30%

COC(=O)CCC(=O)SCCNC(=O)CCNC(=O)[C@H](O)C(C)(C)COC(C)=O [Compound 138]
inhibition at 10 µM ([1]; Fibroblast, NPC1 GM22879, Assay Condition C, read-out: Decreased ROS by at least 10%): ≥ 10%
inhibition at 10 µM [1, 9]: ≥ 30%
inhibition at 10 µM [1, 7]: ≥ 10%

CC(C)(CO)[C@@H](O)C(=O)NCCC(=O)NCCSC(=O)CCCO [Compound 1304, (2R)-2,4-dihydroxy-N-[2-([2-[(4-hydroxybutanoyl)sulfanyl]ethyl]carbamoyl)ethyl]-3,3-dimethylbutanamide]
inhibition at 10 µM [1, 10]: ≥ 10%
inhibition at 10 µM [1, 11]: ≥ 30%
activation at 10 µM [3]: ≥ 20%

COC(=O)CCC(=O)SCCNC(=O)CCNC(=O)[C@H](OC(=O)CN)C(C)(C)CO [Compound 1294, methyl 4-[(2-[3-[(2R)-2-[(2-aminoacetyl)oxy]-4-hydroxy-3,3-dimethylbutanamido]propanamido]ethyl)sulfanyl]-4-oxobutanoate]
activation at 10 µM [3]: ≥ 30%

COC(=O)CC(C(C)=O)C(=O)SCCNC(=O)CCNC(=O)[C@H](O)C(C)(C)CO (stereo partly shown) [Compound 410]
inhibition at 10 µM [1, 12]: ≥ 30%
inhibition at 10 µM ([1]; Fibroblast, MMA Tsi 5224, Assay Condition A, read-out: Decreased ROS by at least 10%): ≥ 10%
inhibition at 10 µM [1, 7]: ≥ 10%
inhibition at 10 µM [1, 8]: ≥ 30%
activation at 50 µM [3]: ≥ 30%

CC(C)(CO)[C@@H](O)C(=O)NCCC(=O)NCCSC(=O)[C@@H](N)Cc1ccc(O)c(O)c1 [Compound 371, (2R)—N-[2-[(2-[[(2S)-2-amino-3-(3,4-dihydroxyphenyl)propanoyl]sulfanyl]ethyl)carbamoyl]ethyl]-2,4-dihydroxy-3,3-dimethylbutanamide]
activation at 10 µM [3]: ≥ 30%

CC(C)=CC(=O)SCCNC(=O)CCNC(=O)[C@H](O)C(C)(C)CO [Compound 37, S-2-{3-[(R)-2,4-dihydroxy-3,3-dimethylbutyrylamino]propionylamino}ethyl 3-methyl-2-butenethioate]
inhibition at 10 µM ([1]; Fibroblast, VLCFA GM13262, Assay Condition C, read-out: Decreased ROS by at least 10%): ≥ 10%
inhibition at 10 µM [1, 6]: ≥ 30%

CCCCCCC(=O)SCCNC(=O)CCNC(=O)[C@H](O)C(C)(C)CO [Compound 372, (2R)—N-(2-[[2-(heptanoylsulfanyl)ethyl]carbamoyl]ethyl)-2,4-dihydroxy-3,3-dimethylbutanamide]
inhibition at 10 µM [1, 7]: ≥ 10%
inhibition at 10 µM [1, 8]: ≥ 30%

C[C@H](CC(=O)SCCNC(=O)CCNC(=O)[C@H](O)C(C)(C)CO)OC(=O)CCC(=O)O [Compound 1243, 4-{[(2R)-4-[(2-{3-[(2R)-2,4-dihydroxy-3,3-dimethylbutanamido]propanamido}ethyl)sulfanyl]-4-oxobutan-2-yl]oxy}-4-oxobutanoic acid]
inhibition at 10 µM ([1]; Fibroblast, BCKD GM00649, Assay Condition C, read-out: Decreased ROS by at least 10%): ≥ 10%
inhibition at 10 µM [1, 12]: ≥ 30%
inhibition at 10 µM [1, 7]: ≥ 10%
inhibition at 10 µM [1, 8]: ≥ 30%

CC(C)(CO)[C@@H](O)C(=O)NCCC(=O)NCCSC(=O)CC(=O)CCC(=O)O [Compound 2, 6-[(2-[3-[(2R)-2,4-dihydroxy-3,3-dimethylbutanamido]propanamido]ethyl)sulfanyl]-4,6-dioxohexanoic acid]
inhibition at 10 µM [1, 5]: ≥ 10%
inhibition at 10 µM [1, 12]: ≥ 30%
inhibition at 10 µM [1, 7]: ≥ 10%
inhibition at 10 µM [1, 8]: ≥ 30%
activation at 10 µM [3]: ≥ 10%

C[C@H](O)CC(=O)CC(=O)SCCNC(=O)CCNC(=O)[C@H](O)C(C)(C)CO [Compound 1306, (2R)-2,4-dihydroxy-N-[2-[(2-[[(5S)-5-hydroxy-3-oxohexanoyl]sulfanyl]ethyl)carbamoyl]ethyl]-3,3-dimethylbutanamide]
Decreased ROS by at least 30% ([1]; Healthy GM05659, Assay Condition A): ≥ 30%
Decreased ROS by at least 30% ([1]; Healthy GM23974, Assay Condition A): ≥ 30%
inhibition at 10 µM [1, 10]: ≥ 10%
inhibition at 10 µM [1, 11]: ≥ 30%
inhibition at 10 µM [1, 7]: ≥ 10%
inhibition at 10 µM [1, 8]: ≥ 30%
activation at 10 µM [3]: ≥ 30%

CC(=O)SCCNC(=O)CCNC(=O)[C@H](O)C(C)(C)COC(=O)[C@@H](N)Cc1ccc(O)c(O)c1 [Compound 498, (3R)-3-[(2-[[2-(acetylsulfanyl)ethyl]carbamoyl]ethyl)carbamoyl]-3-hydroxy-2,2-dimethylpropyl (2S)-2-amino-3-(3,4-dihydroxyphenyl)propanoate]
activation at 50 µM [3]: ≥ 10%

CC(=O)OCC(C)(C)[C@@H](O)C(=O)NCCC(=O)NCCSC(=O)CC(=O)CCC(=O)O [Compound 140, 6-[(2-[3-[(2R)-4-(acetyloxy)-2-hydroxy-3,3-dimethylbutanamido]propanamido]ethyl)sulfanyl]-4,6-dioxohexanoic acid]
inhibition at 10 µM ([1]; Fibroblast, Leigh GM13411, Assay Condition C, read-out: Decreased ROS by at least 30%): ≥ 30%
inhibition at 10 µM [1, 10]: ≥ 10%

CC(=O)OCC(C)(C)[C@@H](OC(C)=O)C(=O)NCCC(=O)NCCSC(C)=O [Compound 1264, (1R)-3-(acetyloxy)-1-[(2-[[2-(acetylsulfanyl)ethyl]carbamoyl]ethyl)carbamoyl]-2,2-dimethylpropyl acetate]
activation at 50 µM [3]: ≥ 20%

CC(=O)SCCNC(=O)CCNC(=O)[C@H](O)C(C)(C)COC(=O)CN [Compound 560, (3R)-3-[(2-[[2-(acetylsulfanyl)ethyl]carbamoyl]ethyl)carbamoyl]-3-hydroxy-2,2-dimethylpropyl 2-aminoacetate]
inhibition at 10 µM [1, 7]: ≥ 10%

CCC(=O)CC(=O)SCCNC(=O)CCNC(=O)[C@H](O)C(C)(C)CO [Compound 382, (2R)-2,4-dihydroxy-3,3-dimethyl-N-[2-([2-[(3-oxopentanoyl)sulfanyl]ethyl]carbamoyl)ethyl]butanamide]
inhibition at 10 µM [1, 10]: ≥ 10%
inhibition at 10 µM [1, 4]: ≥ 30%
inhibition at 10 µM [1, 7]: ≥ 10%
inhibition at 10 µM [1, 8]: ≥ 30%
activation at 50 µM [3]: ≥ 30%
